Test results from patent US20260048051A1, “TREATMENT OF INFLAMMATORY BOWEL DISEASE” (Atomwise Inc., priority 2024, published 2026).
Entries after “also recorded” stand apart in the source; their conditions may differ. Like-named read-outs stand apart in the source and are kept apart here.

How the values were obtained:
[1] = Mouse plasma pharmacokinetics, PO 5 mg/kg; format: in vivo
Description: The following example describes the methods used to evaluate the pharmacokinetics of TYK2 inhibitors in vivo following dosing of a compound of the invention.
The pharmacokinetics of test compounds were evaluated in either male CD-1 mice or male C57BL/6 mice when administered by oral gavage and IV bolus injection. The animals were allowed free access to food and water before administration. The plasma samples were analyzed by LC-MS/MS and the concentration of test compound at each time point was determined by linear regression. Pharmacokinetic parameters were calculated from the plasma concentrations by non-compartmental modeling using WinNonlin 8.2.
Oral composition. To prepare a pharmaceutical composition for oral delivery, the test articles described herein were dissolved in DMSO and then mixed with necessary volume of PEG400 followed by […] in water or 50% Kolliphor HS 15 in saline to provide the final concentrations of 0.5 mg/mL or 1 mg/mL (Table 8). The resultant mixtures were suitable for oral administration.
The PK parameters measured in mouse plasma after treatment with TYK2 inhibitor compounds via PO (oral administration) at 5 mg/kg are summarized below in Tables 9-11.

Mouse colon distribution = format: in vivo; conditions: colon / plasma, read-out: Colon/Plasma Ratio at 12 h
[2] = GLP in vivo assay of genotoxicity
IFNα/pSTAT5 = test: Whole blood potency (IFNα/pSTAT5), mouse; format: cell-based; conditions: read-out: Cellular Whole Blood Potency IC50 (IFNα/pSTAT5), Mouse
From the text: Exemplary compounds of the invention, compounds 1 and 2 were compared in this assay.

Row | Compound | Half-life (t1/2) [1] | Maximum plasma concentration (Cmax) [1] | Total systemic exposure (AUCinf) [1] | Kp at 12 h (Mouse colon distribution; PO 10 mg/kg) | Kp at 12 h (Mouse colon distribution; PO 50 mg/kg) | Kp at 12 h (Mouse colon distribution; PO 200 mg/kg) | genotoxicity [2] | genotoxicity ([2]; listed as compound 2) | IC50 (IFNα/pSTAT5)
1 | C[C@@H](c1ccc(Nc2cc(Nc3ncc(F)cc3S(C)(=O)=O)ncn2)nc1)N1CC2(COC2)C1 [Compound 2, (S)—N^4-(5-(1-(2-oxa-6-azaspiro[3.3]heptan-6-yl)ethyl)pyridin-2-yl)-N^6-(5-fluoro-3-(methylsulfonyl)pyridin-2-yl)pyrimidine-4,6-diamine] | †† (††: 1.0-1.5) | ††† (†††: >1500) | ††† (†††: >2000) | 24 | 13 | 7.4 | substantially no genotoxicity; also recorded: virtually no genotoxicity | substantially non-genotoxic | 0.0643 µM
2 | C[C@@H](c1ccc(Nc2cc(Nc3ncccc3S(C)(=O)=O)ncn2)nc1)N1CC2(COC2)C1 [Compound 1, (S)—N^4-(5-(1-(2-oxa-6-azaspiro[3.3]heptan-6-yl)ethyl)pyridin-2-yl)-N^6-(3-(methylsulfonyl)pyridin-2-yl)pyrimidine-4,6-diamine] | †† (††: 1.0-1.5) | † (†: <800) | †† (††: 1000-2000) | 50 | 33 | 25 | – | – | 0.116 µM
